How the values were obtained:
[1] = molecular target: horse serum butyrylcholinesterase (BChE) (Equus caballus, UniProt P81908)
Electric eel AChE = Electric eel AChE (Electrophorus electricus, UniProt O42275)
Chain of Electric eel AChE (O42275 24-633): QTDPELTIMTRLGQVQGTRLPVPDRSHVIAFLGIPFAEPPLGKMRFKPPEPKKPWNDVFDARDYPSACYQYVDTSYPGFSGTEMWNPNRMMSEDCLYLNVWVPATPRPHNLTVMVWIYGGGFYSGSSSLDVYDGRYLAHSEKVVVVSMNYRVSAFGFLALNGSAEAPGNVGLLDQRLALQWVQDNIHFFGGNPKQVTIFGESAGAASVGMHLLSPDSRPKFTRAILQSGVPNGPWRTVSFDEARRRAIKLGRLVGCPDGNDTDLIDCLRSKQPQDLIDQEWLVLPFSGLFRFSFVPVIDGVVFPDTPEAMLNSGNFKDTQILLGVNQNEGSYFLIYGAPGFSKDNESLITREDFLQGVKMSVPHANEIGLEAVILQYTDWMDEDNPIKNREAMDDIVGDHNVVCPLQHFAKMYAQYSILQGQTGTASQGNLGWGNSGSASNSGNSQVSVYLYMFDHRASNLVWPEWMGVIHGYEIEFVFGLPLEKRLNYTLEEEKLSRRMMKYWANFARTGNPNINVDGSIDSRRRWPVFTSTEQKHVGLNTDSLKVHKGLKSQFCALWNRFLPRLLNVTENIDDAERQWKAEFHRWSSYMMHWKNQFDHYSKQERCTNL

Chain of horse serum butyrylcholinesterase (BChE) (P81908 whole entry): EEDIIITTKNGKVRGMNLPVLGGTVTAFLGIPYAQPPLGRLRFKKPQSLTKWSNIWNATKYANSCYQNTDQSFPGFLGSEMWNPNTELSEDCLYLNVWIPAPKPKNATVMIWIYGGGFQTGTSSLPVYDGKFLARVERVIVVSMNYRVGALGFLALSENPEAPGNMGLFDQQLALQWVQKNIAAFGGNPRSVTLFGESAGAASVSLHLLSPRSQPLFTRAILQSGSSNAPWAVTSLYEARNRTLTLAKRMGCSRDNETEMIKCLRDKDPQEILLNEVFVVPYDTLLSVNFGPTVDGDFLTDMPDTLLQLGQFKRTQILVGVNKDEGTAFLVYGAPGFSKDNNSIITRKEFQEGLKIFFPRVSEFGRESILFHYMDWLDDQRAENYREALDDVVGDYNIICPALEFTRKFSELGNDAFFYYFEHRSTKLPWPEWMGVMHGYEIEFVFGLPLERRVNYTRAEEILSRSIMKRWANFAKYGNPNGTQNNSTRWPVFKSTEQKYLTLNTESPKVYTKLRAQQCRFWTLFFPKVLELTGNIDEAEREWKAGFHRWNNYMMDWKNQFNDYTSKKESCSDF

Which “Effect on BChE” value [1] does the source give for `COc1ccc2c(=O)oc3c(OC)cc(CCN(C)C)c4c(=O)oc1c2c34` [Compound 1, 1-(2-dimethylaminoethyl)-3,8-dimethoxychromeno[5,4,3-cde]chromene-5,10-dione] here?
Its value is “no effect on BChE”.

How did the “Effect on AChE” value (Electric eel AChE) turn out when `COc1c(O)cc2c3c1-c1ccccc1C[C@H]3NCC2` [Compound 2, 1-methoxy-5,6,6a,7-tetrahydro-4H-dibenzo[de,g]quinolin-2-ol (6aR)] was run?
Its value is “effects on neither AChE nor BChE”.

What about the “Effect on BChE” value [1] of the same compound?
The value was “effects on neither AChE nor BChE”.
